In patent US20240293551A1, “USE OF ST-TYPE LIPID COMPOUNDS IN PREPARATION OF NUCLEIC ACID DELIVERY REAGENT AND RELATED PRODUCT” (INSTITUTE OF BASIC MEDICAL SCIENCES CHINESE ACADEMY OF …, priority 2021, published 2024):

Test system: PGY-sRNA-26
Assay: In vivo delivery study of lipid-nucleic acid mixture (oral gavage, RT-qPCR of PGY-sRNA-26 in tissues)
Set-up: species or system mouse
Conditions: C57BL/6 mice, gavage, 100 μg lipid: 10 nmol PGY-sRNA-26, 12 hours; for delivery efficacy over each tissue and blood tested (broad-spectrum delivery): all tissues and blood tested; for oral delivery of single-stranded sRNA nucleic acids into mouse intestinal tissue: intestine
Experimental: 10 nmol of small RNA (as shown in Table 2) was dissolved in 400 μl of DEPC-treated water in a glass tube, 10 μl of the corresponding lipid stock solution was added such that the lipid mass in the system was 100 μg. The mixture was mixed thoroughly, heated in a 90° C. water bath for 15 minutes, and then cooled naturally to obtain the lipid nucleic acid mixture of lipid and small RNA.
C57BL/6 male mice, approximately 6 weeks old, weighing 20-24 g, were obtained from Beijing Vital River Laboratory Animal Technology Co., Ltd. The mice were housed in the SPF-grade animal facility at the Animal Center of the Institute of Basic Medical Sciences, Chinese Academy of Medical Sciences. The mice were fasted for 12 hours before gavage administration.
The resultant lipid nucleic acid mixture was orally administered to each mouse at a dose of 100 μg lipid: 10 nmol single-stranded 3′-methylated small RNA PGY-sRNA-26.
• 1) Blank group (n=4): mice were administered with 500 μl saline by gavage, this group served as a blank control; • 2) Free uptake group (n=4): mice were directly administered with small RNA PGY-sRNA-26 solution (10 nmol/mouse, 500 μl) by gavage, this group served as a negative control; • 3) Lipid-treated group (n=4): mice were administered with 500 μl lipid nucleic acid mixture prepared in step 2 by gavage.
After 12 hours of gavage administration, 500 μl blood from the eyeball of each mouse was sampled, added to 1.5 ml Trizol Reagent LS (purchased from Invitrogen), thoroughly mixed for lysis. 3 ml of Trizol Reagent LSwas added to tissue samples and homogenized for complete lysis, wherein the sampled tissues include heart, liver, spleen, lung, kidney, stomach, intestine, brain, blood, femur. RNA was extracted from 1 ml of the blood or the tissue lysate following the steps below: • Centrifuge at 4° C., 12,000 rpm for 5 min, discard the precipitate, transfer Trizol to a new centrifuge tube; • Add chloroform at 200 μL chloroform/mL Trizol, shake well, stand at room temperature for 5 min; • Centrifuge at 4° C., 12,000 rpm for 15 min; • Take the upper aqueous phase to another centrifuge tube, add isopropanol at 0.4 mL isopropanol/mL Trizol, mix well, and stand at low temperature for 10-20 min; • Centrifuge at 4° C., 12,000 rpm for 15 min, discard the supernatant, RNA precipitated at the bottom of the tube; • Add 1 mL of 75% ethanol, gently shake the centrifuge tube, suspend the precipitate; • Centrifuge at 4° C., 12,000 rpm for 15 min, discard the supernatant, add 1 mL of 75% ethanol, gently shake the centrifuge tube, suspend the precipitate; • Centrifuge at 4° C., 12,000 rpm for 15 min, discard the supernatant, air-dry at room temperature, dissolve RNA samples in 50 μL RNase-free H2O, measure OD value to quantify RNA concentration. 3.3 Reverse Transcription of sRNA to cDNA:
The reverse transcription system is as follows: Template RNA (200 ng/μL) 10 μL, 10×RT Buffer 2.0 μL, 25×dNTP Mix (100 mM) 0.8 μL, U6 RT stem-loop primer (10 μM) 2.0 μL, PGY-sRNA-26 RT stem-loop primer (10 μM) 2.0 μL, MultiScribe™ Reverse Transcriptase (50 U/μL) 1.0 μL, RNAse Inhibitor (40 U/μL) 1.0 μL, nuclease-free H2O 1.2 μL. After transient centrifugation, the reverse transcription system was placed in a PCR machine with the following reaction conditions: (1) 25° C., 10 min; (2) 37° C., 120 min; (3) 85° C., 5 min; (4) 4° C., stop reaction. After the reaction, add 20 μL RNAse-free ddH2O, adjust the final volume to 40 μL. The stem-loop primers used in this reverse transcription process were synthesized by Beijing Tianyi Huiyuan Biotechnology Co., Ltd. (U6 was used as a standard reference gene to calculate its relative expression, because U6 RT primer was used as a reference gene in relative quantification of RT-qPCR reactions for small RNA): […]

Structure (SMILES) | delivery efficacy over each tissue and blood tested (broad-spectrum delivery) | oral delivery of single-stranded sRNA nucleic acids into mouse blood | oral delivery of single-stranded sRNA nucleic acids into mouse brain tissue | oral delivery of single-stranded sRNA nucleic acids into mouse femur | oral delivery of single-stranded sRNA nucleic acids into mouse heart tissue | oral delivery of single-stranded sRNA nucleic acids into mouse intestinal tissue | oral delivery of single-stranded sRNA nucleic acids into mouse kidney tissue | oral delivery of single-stranded sRNA nucleic acids into mouse liver tissue | oral delivery of single-stranded sRNA nucleic acids into mouse lung tissue | oral delivery of single-stranded sRNA nucleic acids into mouse spleen tissue | oral delivery of single-stranded sRNA nucleic acids into mouse stomach tissue
C#C[C@]1(O)CC[C@H]2[C@@H]3CCC4=CC(=O)CC[C@@H]4[C@H]3CC[C@@]21CC [Lipid 560] | exhibited the best delivery efficacy | can effectively orally deliver | can effectively orally deliver | can effectively orally deliver | can effectively orally deliver | can effectively orally deliver | can effectively orally deliver | can effectively orally deliver | can effectively orally deliver | can effectively orally deliver | can effectively orally deliver
CCCCC(=O)O[C@H]1CC[C@H]2[C@@H]3CCc4cc(O)ccc4[C@H]3CC[C@]12C [Lipid 556] | exhibited the best delivery efficacy | can effectively orally deliver | can effectively orally deliver | can effectively orally deliver | can effectively orally deliver | can effectively orally deliver | can effectively orally deliver | can effectively orally deliver | can effectively orally deliver | can effectively orally deliver | can effectively orally deliver
C[C@]12CC[C@H](O)C[C@H]1CC[C@@H]1[C@@H]2CC[C@]2(C)[C@@H](C3=CC(=O)OC3)CC[C@]12O [Lipid 559] | exhibited the best delivery efficacy | can effectively orally deliver | can effectively orally deliver | can effectively orally deliver | can effectively orally deliver | can effectively orally deliver | can effectively orally deliver | can effectively orally deliver | can effectively orally deliver | can effectively orally deliver | can effectively orally deliver
C[C@]12CCC(=O)C=C1CC[C@@H]1[C@@H]2CC[C@@]2(C)[C@H]1CC[C@]2(O)C(=O)CO [Lipid 549] | exhibited the best delivery efficacy | can effectively orally deliver | can effectively orally deliver | can effectively orally deliver | can effectively orally deliver | can effectively orally deliver | can effectively orally deliver | can effectively orally deliver | can effectively orally deliver | can effectively orally deliver | can effectively orally deliver
